In PubChem BioAssay AID344 (DTP/NCI, 2004):
Where “and” joins values, the source holds several entries; their conditions need not be identical. Equal values may be shown once. Toxic doses and inconclusive results are not listed.

System: mice, LPC-1 plasma cell tumor ip, median survival T/C
Experiment: NCI In Vivo Anticancer Drug Screen. Data for tumor model Lieberman Plasma Cell No. 1 (LPC-1) (intraperitoneal) in unknown mice
Conditions: endpoint: median survival time, higher = longer survival
Method: The antitumor activity of compounds was measured in mice bearing transplantable tumors. Survival or tumor size were measured and the results are expressed as the measurement made in the treated group (T) divided by the measurement made in the vehicle treated control group (C). The tumor model used in this assay is Lieberman Plasma Cell No. 1 (LPC-1) (intraperitoneal) in unknown mice

SMILES: CNNCc1ccc(C(=O)NC(C)C)cc1
- T/C (dose: 26.0 mg/kg/injection, schedule: Q01DX028 (sc), vehicle: saline): 96 % of control
- T/C (dose: 65.0 mg/kg/injection, schedule: Q01DX028 (sc), vehicle: saline): 166 % of control
- T/C (dose: 90.0 mg/kg/injection, schedule: Q01DX028 (sc), vehicle: saline): 115 % of control
- T/C (dose: 108.0 mg/kg/injection, schedule: Q01DX028 (sc), vehicle: saline): 180 % of control
- T/C (dose: 135.0 mg/kg/injection, schedule: Q01DX028 (sc), vehicle: saline): 100 % of control
- T/C (dose: 300.0 mg/kg/injection, schedule: Q01DX028 (sc), vehicle: saline): 114 % of control
- T/C (dose: 500.0 mg/kg/injection, schedule: Q01DX028 (sc), vehicle: saline): 95 % of control

SMILES: N[C@@H](Cc1ccc(N(CCCl)CCCl)cc1)C(=O)O
- T/C (dose: 0.57 mg/kg/injection, schedule: Q01DX024 (oral), vehicle: carboxymethylcellulose (CMC)): 92 % of control
- T/C (dose: 0.64 mg/kg/injection, schedule: Q01DX028 (sc), vehicle: saline): 170 % of control
- T/C (dose: 0.65 mg/kg/injection, schedule: Q## X024 (sc), vehicle: saline): 96 % of control
- T/C (dose: 1.07 mg/kg/injection, schedule: Q01DX028 (sc), vehicle: saline): 107 % of control
- T/C (dose: 1.08 mg/kg/injection, schedule: Q01DX008 (sc), vehicle: saline): 96 % of control
- T/C (dose: 1.08 mg/kg/injection, schedule: Q01DX009 (sc), vehicle: saline): 103 % of control
- T/C (dose: 1.08 mg/kg/injection, schedule: Q## X024 (sc), vehicle: saline): 96 % of control
- T/C (dose: 1.15 mg/kg/injection, schedule: Q01DX024 (oral), vehicle: carboxymethylcellulose (CMC)): 100 % of control
- T/C (dose: 1.7 mg/kg/injection, schedule: Q01DX028 (sc), vehicle: saline): 182 % of control
- T/C (dose: 1.8 mg/kg/injection, schedule: Q01DX005 (sc), vehicle: saline): 381 % of control
- T/C (dose: 1.8 mg/kg/injection, schedule: Q01DX008 (sc), vehicle: saline): 100 % of control
- T/C (dose: 1.8 mg/kg/injection, schedule: Q01DX009 (sc), vehicle: saline): 103 % of control
- T/C (dose: 1.8 mg/kg/injection, schedule: Q## X024 (sc), vehicle: saline): 103 % of control
- T/C (dose: 1.87 mg/kg/injection, schedule: Q01DX005 (oral), vehicle: carboxymethylcellulose (CMC)): 88 % of control
- T/C (dose: 1.87 mg/kg/injection, schedule: Q## X015 (oral), vehicle: carboxymethylcellulose (CMC)): 190 % of control
- T/C (dose: 1.9 mg/kg/injection, schedule: Q01DX005 (ip), vehicle: saline): 161 % of control
- T/C (dose: 1.9 mg/kg/injection, schedule: Q## X015 (ip), vehicle: saline): 105 % of control
- T/C (dose: 2.3 mg/kg/injection, schedule: Q01DX024 (oral), vehicle: carboxymethylcellulose (CMC)): 91 % of control and 102 % of control
- T/C (dose: 2.9 mg/kg/injection, schedule: Q01DX028 (sc), vehicle: saline): 155 % of control
- T/C (dose: 3.0 mg/kg/injection, schedule: Q01DX008 (sc), vehicle: saline): 96 % of control
- T/C (dose: 3.0 mg/kg/injection, schedule: Q01DX009 (sc), vehicle: saline): 100 % of control
- T/C (dose: 3.0 mg/kg/injection, schedule: Q01DX028 (sc), vehicle: saline): 164 % of control and 167 % of control and 152 % of control
- T/C (dose: 3.0 mg/kg/injection, schedule: Q04DX003 (sc), vehicle: saline): 109 % of control
- T/C (dose: 3.0 mg/kg/injection, schedule: Q## X024 (sc), vehicle: saline): 96 % of control
- T/C (dose: 3.75 mg/kg/injection, schedule: Q01DX005 (oral), vehicle: carboxymethylcellulose (CMC)): 100 % of control and 104 % of control
- T/C (dose: 3.75 mg/kg/injection, schedule: Q## X010 (oral), vehicle: carboxymethylcellulose (CMC)): 95 % of control and 97 % of control
- T/C (dose: 3.75 mg/kg/injection, schedule: Q## X015 (oral), vehicle: carboxymethylcellulose (CMC)): 214 % of control and 117 % of control
- T/C (dose: 3.8 mg/kg/injection, schedule: Q## X010 (ip), vehicle: saline): 214 % of control
- T/C (dose: 3.8 mg/kg/injection, schedule: Q## X015 (ip), vehicle: saline): 202 % of control
- T/C (dose: 4.0 mg/kg/injection, schedule: Q01DX028 (sc), vehicle: methylcellulose (MC)): 97 % of control
- T/C (dose: 4.5 mg/kg/injection, schedule: Q01DX024 (oral), vehicle: carboxymethylcellulose (CMC)): 88 % of control and 102 % of control
- T/C (dose: 5.0 mg/kg/injection, schedule: Q01DX008 (sc), vehicle: saline): 96 % of control
- T/C (dose: 5.0 mg/kg/injection, schedule: Q01DX009 (sc), vehicle: saline): 103 % of control
- T/C (dose: 5.0 mg/kg/injection, schedule: Q01DX024 (ip), vehicle: saline): 111 % of control
- T/C (dose: 5.0 mg/kg/injection, schedule: Q01DX028 (sc), vehicle: saline): 104 % of control and 105 % of control
- T/C (dose: 5.0 mg/kg/injection, schedule: Q04DX003 (sc), vehicle: saline): 166 % of control
- T/C (dose: 5.0 mg/kg/injection, schedule: Q## X024 (sc), vehicle: saline): 96 % of control
- T/C (dose: 7.5 mg/kg/injection, schedule: Q01DX005 (oral), vehicle: carboxymethylcellulose (CMC)): 94 % of control and 104 % of control
- T/C (dose: 7.5 mg/kg/injection, schedule: Q## X010 (oral), vehicle: carboxymethylcellulose (CMC)): 91 % of control and 95 % of control
- T/C (dose: 7.5 mg/kg/injection, schedule: Q## X015 (ip), vehicle: saline): 108 % of control
- T/C (dose: 8.4 mg/kg/injection, schedule: Q01DX005 (sc), vehicle: saline): 96 % of control
- T/C (dose: 8.4 mg/kg/injection, schedule: Q01DX008 (sc), vehicle: saline): 96 % of control
- T/C (dose: 8.4 mg/kg/injection, schedule: Q01DX009 (sc), vehicle: saline): 100 % of control
- T/C (dose: 8.4 mg/kg/injection, schedule: Q01DX028 (sc), vehicle: saline): 100 % of control
- T/C (dose: 8.4 mg/kg/injection, schedule: Q04DX003 (sc), vehicle: saline): 118 % of control
- T/C (dose: 9.0 mg/kg/injection, schedule: Q01DX024 (oral), vehicle: carboxymethylcellulose (CMC)): 88 % of control and 90 % of control
- T/C (dose: 10.0 mg/kg/injection, schedule: Q01DX024 (ip), vehicle: saline): 94 % of control
- T/C (dose: 14.0 mg/kg/injection, schedule: Q04DX003 (sc), vehicle: saline): 109 % of control
- T/C (dose: 15.0 mg/kg/injection, schedule: Q01DX005 (ip), vehicle: saline): 91 % of control
- T/C (dose: 15.0 mg/kg/injection, schedule: Q## X010 (ip), vehicle: saline): 88 % of control
- T/C (dose: 15.0 mg/kg/injection, schedule: Q## X010 (oral), vehicle: carboxymethylcellulose (CMC)): 97 % of control
- T/C (dose: 15.0 mg/kg/injection, schedule: Q## X015 (ip), vehicle: saline): 88 % of control
- T/C (dose: 15.0 mg/kg/injection, schedule: Q## X015 (oral), vehicle: carboxymethylcellulose (CMC)): 88 % of control and 90 % of control
- T/C (dose: 18.0 mg/kg/injection, schedule: Q01DX001 (ip), vehicle: saline): 123 % of control
- T/C (dose: 19.0 mg/kg/injection, schedule: Q01DX001 (oral), vehicle: carboxymethylcellulose (CMC)): 90 % of control
- T/C (dose: 23.0 mg/kg/injection, schedule: Q04DX003 (sc), vehicle: saline): 103 % of control
- T/C (dose: 30.0 mg/kg/injection, schedule: Q01DX005 (oral), vehicle: carboxymethylcellulose (CMC)): 88 % of control and 90 % of control
- T/C (dose: 30.0 mg/kg/injection, schedule: Q## X015 (oral), vehicle: carboxymethylcellulose (CMC)): 90 % of control
- T/C (dose: 37.5 mg/kg/injection, schedule: Q01DX001 (ip), vehicle: saline): 94 % of control
- T/C (dose: 39.0 mg/kg/injection, schedule: Q01DX001 (sc), vehicle: saline): 96 % of control
- T/C (dose: 60.0 mg/kg/injection, schedule: Q01DX005 (oral), vehicle: carboxymethylcellulose (CMC)): 88 % of control
- T/C (dose: 65.0 mg/kg/injection, schedule: Q01DX001 (ip), vehicle: saline): 88 % of control
- T/C (dose: 65.0 mg/kg/injection, schedule: Q01DX001 (sc), vehicle: saline): 96 % of control
